Data set [1] concerns the target Growth hormone secretagogue receptor type 1 (Homo sapiens, UniProt Q92847). The data set is described as follows: Agonist activity at human ghrelin receptor by cell based BACMAM FLIPR assay. It counts as functional.
Data set [2] in a line: Cmax in Sprague-Dawley rat at 3 mg/kg, po. Type of data set: ADME, organism-based. Further details: dose 3 mg/kg, route oral. Particulars: in vivo.
In a further data set the test system is Rattus norvegicus. Description: AUC (0 to 6 hrs) in Sprague-Dawley rat at 3 mg/kg, po. To be noted: in vivo. It counts as ADME, organism-based, Plasma. Further details: time < 6 hr, dose 3 mg/kg, route oral.
Data set [3] can be described thus: Half life in Sprague-Dawley rat at 1 mg/kg, iv. Type of data set: ADME, organism-based. Further details: dose 1 mg/kg, route intravenous. Particulars: in vivo.
Data set [4] can be described thus: Volume of distribution at steady state in Sprague-Dawley rat at 1 mg/kg, iv. Further details: dose 1 mg/kg, route intravenous. It counts as ADME, organism-based. Particulars: in vivo, read-out: Vdss.
Data set [5] in a line: Total body clearance in Sprague-Dawley rat at 1 mg/kg, iv. Further details: dose 1 mg/kg, route intravenous. Type of data set: ADME, organism-based. To be noted: in vivo.
A short description of data set [6]: Mean residence time in Sprague-Dawley rat at 1 mg/kg, iv. Further details: dose 1 mg/kg, route intravenous. To be noted: in vivo. Type of data set: ADME, organism-based.
Data set [7] is described as follows: Tmax in Sprague-Dawley rat at 3 mg/kg, po. Type of data set: ADME, organism-based. Also on record: dose 3 mg/kg, route oral. Particulars: in vivo.
The nature of data set [8]: Cmax in Sprague-Dawley rat at 1 mg/kg, iv. It counts as ADME, organism-based. Also on record: dose 1 mg/kg, route intravenous. Particulars: in vivo.

Growth hormone secretagogue receptor type 1, sequence (Q92847 whole entry): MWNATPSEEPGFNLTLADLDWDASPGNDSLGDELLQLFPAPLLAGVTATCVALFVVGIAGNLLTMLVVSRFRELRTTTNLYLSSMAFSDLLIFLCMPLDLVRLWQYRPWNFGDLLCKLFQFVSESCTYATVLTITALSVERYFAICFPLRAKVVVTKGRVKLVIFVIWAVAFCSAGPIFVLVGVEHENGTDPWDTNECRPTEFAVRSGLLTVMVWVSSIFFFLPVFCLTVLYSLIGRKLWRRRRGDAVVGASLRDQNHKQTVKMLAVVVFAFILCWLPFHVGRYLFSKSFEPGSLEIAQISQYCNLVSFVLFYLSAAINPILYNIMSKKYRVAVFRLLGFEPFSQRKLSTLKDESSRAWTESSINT

Broadly, the EC50 is the concentration that produces a half-maximal response. A low value points to an effect from little substance. `N[C@H]1CCN(C(=O)[C@H]2CCCCN2S(=O)(=O)c2ccc(-c3ccccc3)cc2)C1`: the EC50 in [1] is over 5010 nM.
Same read-out and setting: with `N[C@H]1CCN(C(=O)[C@@H]2CCCCN2S(=O)(=O)c2ccc(-c3cccnc3)cc2)C1` the figure was 316 nM; with `Cc1ccc(-c2ccc(S(=O)(=O)N3C[C@H](O)C[C@H]3C(=O)N3CC[C@@H](N)C3)cc2F)o1`, 0.501 nM.
Same read-out and setting: with `Cc1ccc(-c2ccc(S(=O)(=O)N3CCCC[C@H]3C(=O)N3C[C@@H](C)N[C@@H](C)C3)cc2F)o1` the figure was 2.51 nM; with `Cc1ccc(-c2ccc(S(=O)(=O)N3CCCC[C@H]3C(=O)N3CC[C@@H](N)C3)cc2F)o1`, 0.0501 nM.
The same measure, in the same setting: with `Cc1ccc(-c2ccc(S(=O)(=O)N3CCCC[C@H]3C(=O)N3CC[C@H](N)C3)cc2F)o1` the figure was 0.158 nM; with `Cc1ccc(-c2ccc(S(=O)(=O)N3CC[C@H]3C(=O)N3CC[C@@H](N)C3)cc2F)o1`, 15.8 nM.
In [1], `N[C@H]1CCN(C(=O)[C@@H]2CCCCN2S(=O)(=O)c2ccc(-c3ccccc3)cc2)C1` showed a half-maximal effective concentration (EC50) of 7.94 nM.
Same read-out and setting: as for `N[C@@H]1CCN(C(=O)[C@@H]2CCCCN2S(=O)(=O)c2ccc(-c3ccccc3)cc2)C1`, the figure is 15.8 nM; as for `N[C@@H]1CCN(C(=O)[C@@H]2CCCCN2S(=O)(=O)c2ccc(-c3ccco3)cc2)C1`, 31.6 nM.
On the same count and under the same terms, with `N[C@H]1CCN(C(=O)[C@@H]2CCCCN2S(=O)(=O)c2ccc(NC(=O)c3ccccc3)cc2)C1` the figure was 20 nM; with `COc1cccc(C(=O)Nc2ccc(S(=O)(=O)N3CCCC[C@H]3C(=O)N3CC[C@H](N)C3)cc2)c1`, 2 nM; with `Cc1ccc(-c2ccc(S(=O)(=O)N3CCCC[C@H]3C(=O)N3CC[C@@H](N)C3)cc2)o1`, 0.251 nM.
Still for that read-out and setting: with `N[C@@H]1CCN(C(=O)[C@H]2CCCCN2S(=O)(=O)c2ccc(-c3ccccc3)cc2)C1` the figure was over 5010 nM.
`CNC1CCN(C(=O)[C@@H]2CCCCN2S(=O)(=O)c2ccc(-c3ccc(C)o3)cc2)C1` (stereo not given in full): a half-maximal response in data set [1] (EC50) required 10 nM.
Take `Cc1ccc(-c2ccc(S(=O)(=O)N3CCCC[C@H]3C(=O)N3CCCNCC3)cc2)o1`: in data set [1], the EC50 was 7.94 nM. The EC50 values of the last two compounds are within 1.5-fold of each other.
As for `N[C@@H]1CCN(C(=O)[C@@H]2CCCCN2S(=O)(=O)c2ccc(-c3cc(Cl)ccc3Cl)cc2)C1`, in [1], the EC50 was 0.316 nM.
Still for that read-out and setting: as for `Cc1ccc(-c2ccc(S(=O)(=O)N3CCNC[C@H]3C(=O)N3CC[C@@H](N)C3)cc2)o1`, the figure is 1.26 nM.
The compound `NC1CCN(C(=O)C2CCCCN2S(=O)(=O)c2ccc(-c3ccccc3)cc2)C1` (stereo not given) had a 50% effective concentration (EC50) in data set [1] of 31.6 nM. This EC50 lies about 25-fold higher than the previous one.
The same measure, in the same setting: as for `Cc1ccc(-c2ccc(S(=O)(=O)N3C[C@@H](O)C[C@H]3C(=O)N3CC[C@@H](N)C3)cc2F)o1`, the figure is 5.01 nM.
The same measure, in the same setting: as for `N[C@@H]1CCN(C(=O)[C@@H]2CCCCN2S(=O)(=O)c2ccc(-c3cc(F)ccc3F)cc2)C1`, the figure is 1 nM; as for `Cc1ccc(-c2ccc(S(=O)(=O)N3CC[C@H](O)[C@H]3C(=O)N3CC[C@@H](N)C3)cc2F)o1`, 0.2 nM.
Compound `N[C@H]1CCN(C(=O)[C@@H]2CCCCN2S(=O)(=O)c2ccc(NC(=O)c3ccccc3F)cc2)C1` showed an EC50 in [1] of 3.98 nM.
A word on the Cmax: it is the highest concentration seen after dosing. What is called half-life is the time needed for the level to fall by half in the phase considered. Lower therefore signals fast loss. The clearance is a measure of how efficiently the substance is removed, as volume per time. A word on the MRT: it is a mean duration of stay, worked out from the concentration-time curve. In general, Tmax refers to the time at which the peak concentration occurs. As for `Cc1ccc(-c2ccc(S(=O)(=O)N3CCC[C@H]3C(=O)N3CC[C@@H](N)C3)cc2F)o1`, the Cmax is 151 nM in data set [2] and 762 nM in data set [8]. Besides, the half-maximal effective concentration (EC50) in data set [1] was 0.398 nM. In the data set with Rattus norvegicus, this compound had an AUC of 5 kg·min/L. This compound gave a half-life in data set [3] of 2.4 h. Also, the Vd in [4] was 3.5 L/kg. Further, the clearance in data set [5] came out at 25 mL/min/kg. Moreover, the MRT in [6] was 2.4 h. Moreover, in data set [7], the Tmax was found to be 4 h.
Consider `N[C@@H]1CCN(C(=O)[C@@H]2CCCCN2S(=O)(=O)c2ccc(-c3ccco3)c(F)c2)C1`, for which the concentration for a half-maximal effect (EC50) in [1] is 3.16 nM.
The same measure, in the same setting: with `N[C@@H]1CCN(C(=O)[C@@H]2CCCCN2S(=O)(=O)c2ccc(Br)cc2)C1` the figure was 398 nM; with `Cc1ccc(-c2ccc(S(=O)(=O)N3CCCC[C@H]3C(=O)N3C[C@@H](C)N[C@@H](C)C3)cc2)o1`, 6.31 nM.

These data come from ChEMBL document CHEMBL1143355, “Aryl sulphonyl amides as potent agonists of the growth hormone secretagogue (ghrelin) receptor” (Bioorg Med Chem Lett, 2009).
